In patent US20100305303A1, “INHIBITING AGENT FOR INHIBITION OF ANGIOGENESIS, A METHOD FOR PREPARING THE AGENT, A METHOD FOR MODIFYING THE AGENT AND ITS USE FOR MANUFACTURING A MEDICAMENT FOR TREATING TUMOR” (priority 2007, published 2010):
Residues, ends and D or L forms follow the SMILES beside them. No end group written: not given here. *: point of attachment. Palmitoyl = CCCCCCCCCCCCCCCC(=O)*

What was measured:
Bel-7402 tumor cells = assay: Binding of FITC labeled polypeptides to integrin-expressing tumor cells by flow cytometry; set-up: unit not given here; conditions: FITC labeled polypeptide, dosage 1 μg/μl, Bel-7402 cells, 25 min
Procedure: Analysis of the binding of polypeptide s and integrin by flow cytometry. Bel-7402 tumor cells were used, which can express integrin. The cells were cultured in a 24-well plate, and the cells were collected and washed with ice-cold PBS twice. Before labeling, the cells were suspended in PBS +1% BSA, maintained for 30 min, added with 1 μl FITC labeled polypeptide s (P1, P2, P3, P4, P5, P6, P7, P8, P9, P10, P11, P12, P13, P14, P15, P16, RGD and ES-2) for reaction for 25 min. After labeling, the cells were collected and washed twice with PBS, suspended again in 400 μl PBS and analysis was conducted with a flow cytometry (Becton Dickinson, USA). FITC fluorescence was determined at FL1 channel The cells with FITC feature would be further analyzed.

[1] = Half-life of polypeptides in plasma at 37° C. (HPLC); assay type: in vitro ADME; conditions: 800 μg/ml, 20 μl injected on HPLC
Procedure: Survey on the half-life of polypeptides in plasma at 37° C. after modification. Preparation of blood drug samples: after crude drug (volume V) (800 ug/ml) +1V plasma were mixed and diluted with 2V water evenly, incubated for 0, 5, 30 min at 37° C. respectively, immediately heated at 80° C. for 30 min; the negative control: after 1V plasma were diluted and mixed with 3 V water evenly, and heated for 30 min at 80° C. The positive control group: after 1V crude drug (800 ug/ml) were diluted and mixed evenly with 3V water, heated for 30 min at 80° C. The samples were the modified products, […] at 14000 rpm for 10 min. The supernatant was fetched for HPLC analysis with the injection size of 20 ul.

B16F10 melanoma cells = assay: In vivo anti-tumor test, B16F10 melanoma; conditions: B16F10 in C57BL/6 mice, 5 mg/kg/d contralateral subcutaneous injection, 9th day
Procedure: The cultured B16F10 melanoma cells were treated with 0.05% trypsin, centrifuged at 1000 rpm for 5 min, suspended again in PBS, inoculated subcutaneously with 0.1 ml of 5×10^5 cells at the body sides of C57BL/6 mice (6-8 weeks). When the average tumor size reached 200 mm3-300 mm3, the mice were randomly divided into two groups, 7 mice for each group, of which, one group of mice were treated with RGD-ED, and the other group were treated with ED not containing RGD, with the doses of 5 mg/kg/d for the two groups, and the control group of mice were subject to PBS injection. The treatment method was contralateral subcutaneous injection of the inoculated tumors.

NIH 3T3 cells = assay: Cell proliferation analysis on non-endothelial cells; assay type: cell-based; conditions: non-endothelial NIH 3T3 cells, 48 h
Procedure: The culture of BCE cells and NIH 3T3 cells, method: the culture solution DMEM contained 10% inactivated calf serum (BCS), 1% antibiotics and 3 ng/ml bFGF. Cell proliferation analysis method is as follows: washed the cells with PBS, digested with trypsin, added with culture solution suspension cells and centrifuged and collected cells, and regulated the cell concentrations to 25,000 cells/ml. The cells were moved to 6-well plates (0.5 ml/well) and cultured for 24 h. Replaced the culture medium as 1 ml DMEM, 5% BCS, 1% antibiotics, 1 ng/ml bFGF. Different doses of samples were added to each hole, and further cultured for 48 h, digested the cells with trypsase, re-suspended in PBS, fixed with 70% ice-cold ethanol and stained with 7-AAD, and then conducted analysis with flow cytometry.

CAMs = assay: CAM analysis of anti-angiogenic activity; assay type: in vivo, chick
Procedure: To detect the in vivo anti-angiogenic activity, CAM analysis was carried out. All the tests were carried out on the ultra-clean platform under sterile conditions. The 6-day disinfected chick embryos were cultured under the condition of 37° C., 90% humidity. After 2 days, the top of each egg was punched and the reagents were dripped into the sterile Whatman filter paper, then put on the CAMs vascular clustered area, cultivated for 48 hours, and observed the chick embryos and CAMs and took pictures.

[2] = tested on: human liver cancer SGC7901; assay: In vivo anti-tumor test, SGC7901 xenograft; conditions: SGC7901 in nude mice, 3 mg/kg/d contralateral subcutaneous injection, 10th day
Procedure: (§1) The cultured human liver cancer SGC7901 was treated with 0.05% trypsin, centrifuged at 1000 rpm for 5 min, suspended again in PBS, inoculated subcutaneously with 0.1 ml of 5×10^5 cells on the body sides of nude mice (6-8 weeks). When the average tumor size reached 100 mm^3-200 mm^3, the mice were randomly divided into three groups, 7 mice for each group, of which, one group of mice were treated with RGD-ED, one group were treated with RGD-ED modified with liposome, and the third group were treated with RGD-ED modified with polyethylene glycol, with the doses of 3 mg/kg/d for the three groups, and the control group of mice were subject to PBS injection. The treatment method was contralateral subcutaneous injection of the inoculated tumors.
as §1, with “with liposome-modified RGD-ED,” for “with RGD-ED modified with liposome,”, “with” for “with RGD-ED modified with”, “polyethylene glycol-modified RGD-ED,” for “polyethylene glycol,”, “injection. […]” for “injection. The treatment method was contralateral subcutaneous injection of the inoculated tumors.”

Row | Compound | Binding Value (Bel-7402 tumor cells) | also measured
1 | Arg-Gly-Asp-Ile-Val-Arg-Arg-Ala-Asp-Arg-Ala-Ala-Val-Pro-linker-Arg-Gly-Asp [P7] | 60.25 | –
2 | Ile-Val-Arg-Arg-Ala-Asp-Arg-Ala-Ala-Val-Pro-linker-Ala-Cys-Asp-Cys-Arg-Gly-Asp-Cys-Phe-Cys [P11] | 60.20 | –
3 | Arg-Gly-Asp-linker-Ile-Val-Arg-Arg-Ala-Asp-Arg-Ala-Ala-Val-Pro-Arg-Gly-Asp [P8] | 58.30 | –
4 | Ala-Cys-Asp-Cys-Arg-Gly-Asp-Cys-Phe-Cys-linker-Ile-Val-Arg-Arg-Ala-Asp-Arg-Ala-Ala-Val-Pro [P9] | 66.04 | –
5 | Ala-Cys-Asp-Cys-Arg-Gly-Asp-Cys-Phe-Cys-linker-Ile-Val-Arg-Arg-Ala-Asp-Arg-Ala-Ala-Val-Pro-linker-Ala-Cys-Asp-Cys-Arg-Gly-Asp-Cys-Phe-Cys [P16] | 66.12 | –
6 | Arg-Gly-Asp-linker-Ile-Val-Arg-Arg-Ala-Asp-Arg-Ala-Ala-Val-Pro-linker-Arg-Gly-Asp [P6] | 60.27 | –
7 | IVRRADRAAVPACDCRGDCFC (cysteine pairing not given here) [P12] | 67.28 | –
8 | Ile-Val-Arg-Arg-Ala-Asp-Arg-Ala-Ala-Val-Pro-linker-Arg-Gly-Asp [P3] | 58.96 | –
9 | CCCCCCCCCCCCCCCC(=O)N[C@@H](CCCNC(=N)N)C(=O)NCC(=O)N[C@@H](CC(=O)O)C(=O)NCC(=O)NCC(=O)NCC(=O)NCC(=O)N[C@H](C(=O)N[C@H](C(=O)N[C@@H](CCCNC(=N)N)C(=O)N[C@@H](CCCNC(=N)N)C(=O)N[C@@H](C)C(=O)N[C@@H](CC(=O)O)C(=O)N[C@@H](CCCNC(=N)N)C(=O)N[C@@H](C)C(=O)N[C@@H](C)C(=O)N[C@H](C(=O)N1CCC[C@H]1C(=O)O)C(C)C)C(C)C)[C@@H](C)CC [Palmitic acid-modified substance] (Palmitoyl-RGDGGGGIVRRADRAAVP-OH; C-terminus assumed) | – | half-life [1]: 12 min
10 | IVRRADRAAVP [ED, reference compound] | 18.35 | tumor inhibition rate (B16F10 melanoma cells): 28%
11 | Ala-Cys-Asp-Cys-Arg-Gly-Asp-Cys-Phe-Cys-Ile-Val-Arg-Arg-Ala-Asp-Arg-Ala-Ala-Val-Pro-linker-Ala-Cys-Asp-Cys-Arg-Gly-Asp-Cys-Phe-Cys [P15] | 64.11 | –
12 | RGDIVRRADRAAVPRGD [P5] | 59.40 | –
13 | RGDIVRRADRAAVP [P2] | 62.15 | –
14 | designed angiogenesis inhibitor: ED polypeptide joined to a sequence containing Arg-Gly-Asp, expressed recombinantly in E. coli; exact sequence not stated [RGD-ED] | – | inhibitory effect on NIH 3T3 cell proliferation (NIH 3T3 cells): no inhibitory effect; inhibition of neovascularization and angiogenesis in CAM (CAMs; 0.05 μg, 0.1 μg and 0.2 μg, 48 hours): significantly inhibit; chick embryo death in CAM test (CAMs; 0.5 μg): cause chick embryo death; inhibition of angiogenesis in CAM (CAMs; 0.5 μg, 48 hours): completely inhibit; tumor inhibition rate (B16F10 melanoma cells): 58%; tumor inhibition rate [2]: 68%
15 | IVRRADRAAVPRGD [P4] | 60.13 | –
16 | ACDCRGDCFCIVRRADRAAVPACDCRGDCFC (cysteine pairing not given here) [P13] | 59.25 | –
17 | RGDGGGGIVRRADRAAVP [P1] | 63.21 | half-life [1]: 7 min
18 | arginine-glycine-aspartic acid [RGD, reference compound] | 59.45 | –
19 | Ala-Cys-Asp-Cys-Arg-Gly-Asp-Cys-Phe-Cys-linker-Ile-Val-Arg-Arg-Ala-Asp-Arg-Ala-Ala-Val-Pro-Ala-Cys-Asp-Cys-Arg-Gly-Asp-Cys-Phe-Cys [P14] | 58.32 | –
20 | ACDCRGDCFCIVRRADRAAVP (cysteine pairing not given here) [P10] | 63.28 | –
